Assays:
[1] = system: normal NK cells expanded with K562-aAPC; test: drug sensitivity score (DSS) (DSS units); higher = more sensitive; extreme values may be limits of the assay; conditions: 72 h; IL-2 2.5 ng/mL
Experimental: (§1)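 Drug sensitivity and resistance testing on K562-aAPC-expanded normal NK cells: 5 concentrations (10-fold steps over a 10,000-fold range), 72 h at 37 °C, viability by CellTiter-Glo normalised to DMSO and benzethonium chloride controls; DSS from the fitted curve.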

YT (IL-2 2.5 ng/mL) [2] = test: as above; conditions: 72 h
IMC-1 (IL-2 20 ng/mL) [3] = test: as above; conditions: 72 h
NK-92 (IL-2 2.5 ng/mL) [4] = test: as above; conditions: 72 h
[5] = system: normal primary NK cells, pool 1 (3 donors), resting (IL-2 0 ng/mL); test: as above; conditions: 72 h
NK-YS (IL-2 2.5 ng/mL) [6] = test: as above; conditions: 72 h
KAI3 (IL-2 2.5 ng/mL) [7] = test: as above; conditions: 72 h
SNK-6 (IL-2 2.5 ng/mL) [8] = test: as above; conditions: 72 h
[9] = system: normal primary NK cells, pool 1 (3 donors) (IL-2 2.5 ng/mL); test: as above; conditions: 72 h
KHYG-1 (IL-2 2.5 ng/mL) [10] = test: as above; conditions: 72 h
DERL-7 (IL-2 2.5 ng/mL) [11] = test: as above; conditions: 72 h
NKL (IL-2 2.5 ng/mL) [12] = test: as above; conditions: 72 h
[13] = system: normal primary NK cells, pool 3 (3 donors) (IL-2 2.5 ng/mL); test: as above; conditions: 72 h
[14] = system: normal primary NK cells, pool 2 (3 donors) (IL-2 2.5 ng/mL); test: as above; conditions: 72 h
[15] = system: normal NK cells expanded with K562-aAPC; test: percent inhibition of viability; higher = more inhibition; conditions: 72 h, IL-2 2.5 ng/mL
Experimental: as §1

YT (IL-2 2.5 ng/mL) [16] = test: as above; conditions: 72 h
IMC-1 (IL-2 20 ng/mL) [17] = test: as above; conditions: 72 h
NK-92 (IL-2 2.5 ng/mL) [18] = test: as above; conditions: 72 h
[19] = system: normal primary NK cells, pool 1 (3 donors), resting (IL-2 0 ng/mL); test: as above; conditions: 72 h
NK-YS (IL-2 2.5 ng/mL) [20] = test: as above; conditions: 72 h
KAI3 (IL-2 2.5 ng/mL) [21] = test: as above; conditions: 72 h
SNK-6 (IL-2 2.5 ng/mL) [22] = test: as above; conditions: 72 h
[23] = system: normal primary NK cells, pool 1 (3 donors) (IL-2 2.5 ng/mL); test: as above; conditions: 72 h
KHYG-1 (IL-2 2.5 ng/mL) [24] = test: as above; conditions: 72 h
DERL-7 (IL-2 2.5 ng/mL) [25] = test: as above; conditions: 72 h
NKL (IL-2 2.5 ng/mL) [26] = test: as above; conditions: 72 h
[27] = system: normal primary NK cells, pool 3 (3 donors) (IL-2 2.5 ng/mL); test: as above; conditions: 72 h
[28] = system: normal primary NK cells, pool 2 (3 donors) (IL-2 2.5 ng/mL); test: as above; conditions: 72 h

CC(C)Cn1cnc2c(N)nc3ccccc3c21 [Imiquimod] (max concentration tested 2500 nM)
Conditions	drug sensitivity score
DERL-7 (IL-2 2.5 ng/mL) [11]	0
IMC-1 (IL-2 20 ng/mL) [3]	1.48
KAI3 (IL-2 2.5 ng/mL) [7]	0.57
KHYG-1 (IL-2 2.5 ng/mL) [10]	0.26
NK-92 (IL-2 2.5 ng/mL) [4]	0.3
NK-YS (IL-2 2.5 ng/mL) [6]	0.38
NKL (IL-2 2.5 ng/mL) [12]	0
SNK-6 (IL-2 2.5 ng/mL) [8]	9.47
YT (IL-2 2.5 ng/mL) [2]	0
[1]	1.27
[5]	0
[9]	0
[13]	0
[14]	0.45

percent inhibition of viability [%]
Conditions	0.25 nM	2.5 nM	25 nM	250 nM	2500 nM
DERL-7 (IL-2 2.5 ng/mL) [25]	-5	4.44	-3.41	4.83	-1.82
IMC-1 (IL-2 20 ng/mL) [17]	2.11	-3.32	4.26	10.8	22.2
KAI3 (IL-2 2.5 ng/mL) [21]	-2.07	-8.41	6.25	5.37	17.9
KHYG-1 (IL-2 2.5 ng/mL) [24]	-3	-3.08	2.45	6.32	13.8
NK-92 (IL-2 2.5 ng/mL) [18]	-7.9	-11.3	-5.41	5.55	12.3
NK-YS (IL-2 2.5 ng/mL) [20]	-0.76	-2.23	5.71	6	16.1
NKL (IL-2 2.5 ng/mL) [26]	-2.54	-14.7	-1.93	3.67	1.08
SNK-6 (IL-2 2.5 ng/mL) [22]	10.3	-13.6	12.2	44	57.8
YT (IL-2 2.5 ng/mL) [16]	-4.4	-3	5.75	3.31	4.52
[15]	-2.97	-4.12	-1.05	14.8	11.3
[19]	-4.66	7.46	-14.7	-14.5	-19.1
[23]	-14.4	5.91	-7.15	-9.14	5.82
[27]	-14.7	-9.92	-6.17	-5.82	6.93
[28]	-8	-6.73	-8.32	-4.68	20.8

CC(C)[C@H](C(=O)Nc1ccc(C(=O)NO)cc1)c1ccccc1 [AR-42] (max concentration tested 10000 nM)
Conditions	drug sensitivity score
DERL-7 (IL-2 2.5 ng/mL) [11]	17.7
IMC-1 (IL-2 20 ng/mL) [3]	18.3
KAI3 (IL-2 2.5 ng/mL) [7]	24.6
KHYG-1 (IL-2 2.5 ng/mL) [10]	19.4
NK-92 (IL-2 2.5 ng/mL) [4]	22.9
NK-YS (IL-2 2.5 ng/mL) [6]	14.8
NKL (IL-2 2.5 ng/mL) [12]	18.9
SNK-6 (IL-2 2.5 ng/mL) [8]	18.9
YT (IL-2 2.5 ng/mL) [2]	14.9
[1]	17.3
[5]	15.9
[9]	16.6
[13]	15
[14]	15.4

percent inhibition of viability [%]
Conditions	1 nM	10 nM	100 nM	1000 nM	10000 nM
DERL-7 (IL-2 2.5 ng/mL) [25]	-0.01	2.48	-2.69	100	101
IMC-1 (IL-2 20 ng/mL) [17]	-2.38	-3.46	10.1	92.8	101
KAI3 (IL-2 2.5 ng/mL) [21]	-2.48	10.7	56.8	93.1	109
KHYG-1 (IL-2 2.5 ng/mL) [24]	-2.7	-4.06	8.15	104	109
NK-92 (IL-2 2.5 ng/mL) [18]	-16.8	-2.43	34.6	104	109
NK-YS (IL-2 2.5 ng/mL) [20]	-6.36	-5.82	4.66	76.3	108
NKL (IL-2 2.5 ng/mL) [26]	-5.13	-4.69	35.2	77.5	107
SNK-6 (IL-2 2.5 ng/mL) [22]	-0.12	1.49	22.2	88.3	101
YT (IL-2 2.5 ng/mL) [16]	-2.57	0.39	5.64	75.6	108
[15]	5.85	0.8	9.74	87.9	101
[19]	-9.37	-0.47	13.4	77.4	88.7
[23]	2.55	6.41	6.74	85.7	97.5
[27]	-3.19	-1.6	-0.03	82	98.4
[28]	-13.5	-9.96	3.39	82.8	94.9

C=CCn1c(=O)c2cnc(Nc3ccc(N4CCN(C)CC4)cc3)nc2n1-c1cccc(C(C)(C)O)n1 [MK1775] (max concentration tested 10000 nM)
Conditions	drug sensitivity score
DERL-7 (IL-2 2.5 ng/mL) [11]	20.4
IMC-1 (IL-2 20 ng/mL) [3]	17.1
KAI3 (IL-2 2.5 ng/mL) [7]	21.8
KHYG-1 (IL-2 2.5 ng/mL) [10]	27.1
NK-92 (IL-2 2.5 ng/mL) [4]	24.3
NK-YS (IL-2 2.5 ng/mL) [6]	18.8
NKL (IL-2 2.5 ng/mL) [12]	25.5
SNK-6 (IL-2 2.5 ng/mL) [8]	21
YT (IL-2 2.5 ng/mL) [2]	20.4
[1]	13
[5]	0
[9]	3.64
[13]	1.01
[14]	2.29

percent inhibition of viability [%]
Conditions	1 nM	10 nM	100 nM	1000 nM	10000 nM
DERL-7 (IL-2 2.5 ng/mL) [25]	0.66	0.03	17.1	97.5	92.2
IMC-1 (IL-2 20 ng/mL) [17]	-5.81	-5.29	-4.21	96.3	99
KAI3 (IL-2 2.5 ng/mL) [21]	-0.83	7.57	45.7	91.1	90.4
KHYG-1 (IL-2 2.5 ng/mL) [24]	-2.16	1.16	78.7	102	98.7
NK-92 (IL-2 2.5 ng/mL) [18]	4.45	-1.85	53.5	98.9	97.4
NK-YS (IL-2 2.5 ng/mL) [20]	-5.73	-7.13	10.9	92.7	94.9
NKL (IL-2 2.5 ng/mL) [26]	-16	4.83	68.4	94.3	64.4
SNK-6 (IL-2 2.5 ng/mL) [22]	-5.66	-15.9	26.5	92.5	96.4
YT (IL-2 2.5 ng/mL) [16]	1.53	1.29	16.2	98.3	98.1
[15]	-4.38	-1.43	28.4	50.9	65.7
[19]	-1.92	-3.22	7.91	4.91	-27.9
[23]	-14.7	-12.2	-5.81	9.3	42.5
[27]	-17.6	-4.31	-8.03	5.21	17.9
[28]	-15.1	-7.74	-2.34	4.19	34.3

Source: the supplement of paper PMC5908809
